According to ChEMBL document CHEMBL4811281, “Identification of aryl sulfonamides as novel and potent inhibitors of NaV1.5” (Bioorg Med Chem Lett, 2021):

Key:
[1] = Drug uptake in FVB mouse brain at 10 mg/kg, po measured after 2 hrs; assay type: ADME, organism-based; settings: read-out: Drug uptake
[2] = molecular target: T1, Sodium channel protein type 5 subunit alpha (Homo sapiens, UniProt Q14524); assay: Inhibition of human Nav1.5 expressed in HEK293 cells by sodium influx assay; assay type: cell-based
Cytochrome P450 2C9 = Cytochrome P450 2C9 (Homo sapiens, UniProt P11712); assay: Inhibition of CYP2C9 (unknown origin); assay type: ADME
[3] = molecular target: T1, Sodium channel protein type 5 subunit alpha; assay: Inhibition of human Nav1.5 expressed in HEK293 cells assessed as inhibition of late channel current at holding potential of -95 mV; assay type: cell-based
[4] = Anti-arrythmic activity in human iPSC-derived cardiomyocytes assessed as shortening of ATX-II induced APD90 prolongation at 100 nM in presence of 15 to 30 nM ATX-II by current clamp analysis; assay type: functional; settings: iPSC-CM
[5] = molecular target: T1, Sodium channel protein type 5 subunit alpha; assay: Inhibition of human Nav1.5 by automated voltage clamp electrophysiology
hERG (KCNH2) = hERG (KCNH2) (Homo sapiens, UniProt Q12809); assay: Inhibition of human ERG at 10 uM by voltage clamp method
Chain of hERG (KCNH2) (Q12809 whole entry): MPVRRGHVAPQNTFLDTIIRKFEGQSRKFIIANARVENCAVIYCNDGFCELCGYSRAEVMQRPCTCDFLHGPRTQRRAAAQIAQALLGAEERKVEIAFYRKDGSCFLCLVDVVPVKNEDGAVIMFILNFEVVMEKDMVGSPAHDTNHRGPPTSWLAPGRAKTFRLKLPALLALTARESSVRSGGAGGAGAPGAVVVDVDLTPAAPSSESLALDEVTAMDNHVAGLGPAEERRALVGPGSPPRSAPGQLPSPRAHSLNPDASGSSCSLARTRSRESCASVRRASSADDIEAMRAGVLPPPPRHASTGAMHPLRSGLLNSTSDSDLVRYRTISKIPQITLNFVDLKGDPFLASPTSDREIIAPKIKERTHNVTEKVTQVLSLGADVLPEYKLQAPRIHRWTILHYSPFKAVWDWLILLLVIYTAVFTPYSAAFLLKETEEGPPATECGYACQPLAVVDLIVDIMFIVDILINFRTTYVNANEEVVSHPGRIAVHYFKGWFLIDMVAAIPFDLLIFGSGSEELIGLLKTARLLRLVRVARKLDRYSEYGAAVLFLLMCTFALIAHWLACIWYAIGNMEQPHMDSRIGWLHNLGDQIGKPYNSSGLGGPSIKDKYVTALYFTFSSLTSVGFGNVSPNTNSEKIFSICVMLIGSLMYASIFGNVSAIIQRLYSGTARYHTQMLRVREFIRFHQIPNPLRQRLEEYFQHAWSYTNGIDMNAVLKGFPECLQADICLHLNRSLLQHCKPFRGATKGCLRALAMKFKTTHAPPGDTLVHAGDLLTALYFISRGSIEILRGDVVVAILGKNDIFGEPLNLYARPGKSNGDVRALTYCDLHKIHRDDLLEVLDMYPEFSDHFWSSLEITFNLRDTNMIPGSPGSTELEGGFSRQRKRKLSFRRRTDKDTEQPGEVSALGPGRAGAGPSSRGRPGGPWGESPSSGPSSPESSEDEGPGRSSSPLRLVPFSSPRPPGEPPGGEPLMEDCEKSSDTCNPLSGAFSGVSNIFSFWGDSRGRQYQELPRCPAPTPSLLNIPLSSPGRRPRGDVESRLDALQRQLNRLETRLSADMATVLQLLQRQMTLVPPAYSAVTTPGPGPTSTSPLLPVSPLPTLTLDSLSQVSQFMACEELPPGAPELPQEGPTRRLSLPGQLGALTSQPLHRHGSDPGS

[6] = molecular target: T1, Sodium channel protein type 5 subunit alpha; assay: Inhibition of human Nav1.5 by V1/2 protocol based analysis
[7] = molecular target: T2, Sodium channel protein type 2 subunit alpha (Homo sapiens, UniProt Q99250); assay: Inhibition of human Nav1.2 expressed in HEK293 cells by sodium influx assay; assay type: cell-based
T2 sequence (Q99250 whole entry): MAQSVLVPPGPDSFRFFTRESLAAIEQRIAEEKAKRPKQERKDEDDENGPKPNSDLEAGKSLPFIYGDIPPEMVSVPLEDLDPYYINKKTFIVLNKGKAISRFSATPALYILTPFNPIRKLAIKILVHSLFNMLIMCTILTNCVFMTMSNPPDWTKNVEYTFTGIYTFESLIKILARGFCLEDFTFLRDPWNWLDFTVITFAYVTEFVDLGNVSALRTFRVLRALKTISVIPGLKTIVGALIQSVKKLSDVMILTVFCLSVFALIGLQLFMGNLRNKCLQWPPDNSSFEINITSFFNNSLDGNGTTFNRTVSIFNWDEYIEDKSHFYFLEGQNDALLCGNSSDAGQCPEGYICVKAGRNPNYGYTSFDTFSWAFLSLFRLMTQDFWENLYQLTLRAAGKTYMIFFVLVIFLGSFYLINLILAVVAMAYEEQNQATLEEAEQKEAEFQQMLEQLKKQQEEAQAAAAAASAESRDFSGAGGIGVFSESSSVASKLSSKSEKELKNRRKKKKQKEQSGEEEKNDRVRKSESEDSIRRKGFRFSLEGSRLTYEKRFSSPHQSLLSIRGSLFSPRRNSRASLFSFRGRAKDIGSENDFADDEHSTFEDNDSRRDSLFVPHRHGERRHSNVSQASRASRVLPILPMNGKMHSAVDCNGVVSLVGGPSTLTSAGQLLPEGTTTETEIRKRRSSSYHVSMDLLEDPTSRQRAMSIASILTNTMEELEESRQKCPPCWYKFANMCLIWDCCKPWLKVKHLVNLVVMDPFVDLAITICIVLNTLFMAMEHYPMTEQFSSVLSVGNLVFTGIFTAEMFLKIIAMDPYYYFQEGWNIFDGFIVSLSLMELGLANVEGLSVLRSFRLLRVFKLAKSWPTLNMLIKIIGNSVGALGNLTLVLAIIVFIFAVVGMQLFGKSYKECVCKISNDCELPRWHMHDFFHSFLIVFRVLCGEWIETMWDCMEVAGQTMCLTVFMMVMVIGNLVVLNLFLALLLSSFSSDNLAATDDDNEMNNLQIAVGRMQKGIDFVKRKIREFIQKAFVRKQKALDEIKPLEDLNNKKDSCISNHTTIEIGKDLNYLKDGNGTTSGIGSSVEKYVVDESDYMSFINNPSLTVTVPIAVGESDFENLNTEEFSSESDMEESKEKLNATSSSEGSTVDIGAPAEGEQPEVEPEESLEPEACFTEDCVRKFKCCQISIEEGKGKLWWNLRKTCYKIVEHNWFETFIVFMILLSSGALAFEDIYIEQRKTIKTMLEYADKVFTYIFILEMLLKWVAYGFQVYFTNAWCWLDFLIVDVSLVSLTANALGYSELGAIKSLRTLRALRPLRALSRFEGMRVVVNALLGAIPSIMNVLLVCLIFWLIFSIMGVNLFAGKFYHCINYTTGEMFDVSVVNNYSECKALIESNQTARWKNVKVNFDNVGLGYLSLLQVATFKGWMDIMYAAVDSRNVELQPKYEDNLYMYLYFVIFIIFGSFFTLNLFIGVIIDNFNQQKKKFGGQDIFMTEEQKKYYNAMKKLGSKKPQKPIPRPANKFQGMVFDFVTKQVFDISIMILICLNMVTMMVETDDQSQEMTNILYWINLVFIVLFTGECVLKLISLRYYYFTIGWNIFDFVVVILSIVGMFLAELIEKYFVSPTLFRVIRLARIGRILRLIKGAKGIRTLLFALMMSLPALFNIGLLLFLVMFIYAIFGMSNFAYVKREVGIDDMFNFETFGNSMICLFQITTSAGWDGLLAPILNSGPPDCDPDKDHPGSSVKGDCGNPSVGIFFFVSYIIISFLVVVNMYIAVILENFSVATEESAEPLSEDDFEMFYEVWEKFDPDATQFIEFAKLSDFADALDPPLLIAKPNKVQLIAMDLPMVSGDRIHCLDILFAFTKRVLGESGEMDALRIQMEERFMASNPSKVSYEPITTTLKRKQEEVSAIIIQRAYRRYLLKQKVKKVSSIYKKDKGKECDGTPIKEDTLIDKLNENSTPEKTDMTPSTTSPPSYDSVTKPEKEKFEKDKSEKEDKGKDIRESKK

Cytochrome P450 2C19 = Cytochrome P450 2C19 (Homo sapiens, UniProt P33261); assay: Inhibition of CYP2C19 (unknown origin); assay type: ADME
[8] = molecular target: T3, Sodium channel protein type 1 subunit alpha (Homo sapiens, UniProt P35498); assay: Inhibition of human Nav1.1 by V1/2 protocol based analysis
[9] = Half life in FVB mouse at 10 mg/kg, po; assay type: ADME, organism-based; settings: in vivo
[10] = molecular target: Voltage-dependent L-type calcium channel subunit alpha-1C (Homo sapiens, UniProt Q13936); assay: Inhibition of Cav1.2 (unknown origin) by voltage clamp assay
[11] = molecular target: T2, Sodium channel protein type 2 subunit alpha; assay: Inhibition of human Nav1.2 by whole cell voltage clamp analysis
[12] = molecular target: Voltage-gated potassium channel, IKs; KCNQ1(Kv7.1)/KCNE1(MinK) (Homo sapiens, UniProt P51787+P15382); assay: Inhibition of KvLQT1/mink (unknown origin) by voltage clamp method; assay type: protein-complex assay
[13] = Plasma concentration in FVB mouse at 10 mg/kg, po measured after 2 hrs; assay type: ADME, organism-based
Cytochrome P450 1A2 = Cytochrome P450 1A2 (Homo sapiens, UniProt P05177); assay: Inhibition of CYP1A2 (unknown origin); assay type: ADME
Cytochrome P450 3A4 = Cytochrome P450 3A4 (Homo sapiens, UniProt P08684); assay: Inhibition of CYP3A4 (unknown origin); assay type: ADME
[14] = molecular target: T2, Sodium channel protein type 2 subunit alpha; assay: Inhibition of human Nav1.2 by V1/2 protocol based analysis
[15] = AUC in FVB mouse at 10 mg/kg, po; assay type: ADME, organism-based; parameters: dose 10 mg/kg; settings: in vivo
[16] = molecular target: T4, Sodium channel protein type 8 subunit alpha (Homo sapiens, UniProt Q9UQD0); assay: Inhibition of human Nav1.6 expressed in HEK293 cells by sodium influx assay; assay type: cell-based
T4 sequence (Q9UQD0 whole entry): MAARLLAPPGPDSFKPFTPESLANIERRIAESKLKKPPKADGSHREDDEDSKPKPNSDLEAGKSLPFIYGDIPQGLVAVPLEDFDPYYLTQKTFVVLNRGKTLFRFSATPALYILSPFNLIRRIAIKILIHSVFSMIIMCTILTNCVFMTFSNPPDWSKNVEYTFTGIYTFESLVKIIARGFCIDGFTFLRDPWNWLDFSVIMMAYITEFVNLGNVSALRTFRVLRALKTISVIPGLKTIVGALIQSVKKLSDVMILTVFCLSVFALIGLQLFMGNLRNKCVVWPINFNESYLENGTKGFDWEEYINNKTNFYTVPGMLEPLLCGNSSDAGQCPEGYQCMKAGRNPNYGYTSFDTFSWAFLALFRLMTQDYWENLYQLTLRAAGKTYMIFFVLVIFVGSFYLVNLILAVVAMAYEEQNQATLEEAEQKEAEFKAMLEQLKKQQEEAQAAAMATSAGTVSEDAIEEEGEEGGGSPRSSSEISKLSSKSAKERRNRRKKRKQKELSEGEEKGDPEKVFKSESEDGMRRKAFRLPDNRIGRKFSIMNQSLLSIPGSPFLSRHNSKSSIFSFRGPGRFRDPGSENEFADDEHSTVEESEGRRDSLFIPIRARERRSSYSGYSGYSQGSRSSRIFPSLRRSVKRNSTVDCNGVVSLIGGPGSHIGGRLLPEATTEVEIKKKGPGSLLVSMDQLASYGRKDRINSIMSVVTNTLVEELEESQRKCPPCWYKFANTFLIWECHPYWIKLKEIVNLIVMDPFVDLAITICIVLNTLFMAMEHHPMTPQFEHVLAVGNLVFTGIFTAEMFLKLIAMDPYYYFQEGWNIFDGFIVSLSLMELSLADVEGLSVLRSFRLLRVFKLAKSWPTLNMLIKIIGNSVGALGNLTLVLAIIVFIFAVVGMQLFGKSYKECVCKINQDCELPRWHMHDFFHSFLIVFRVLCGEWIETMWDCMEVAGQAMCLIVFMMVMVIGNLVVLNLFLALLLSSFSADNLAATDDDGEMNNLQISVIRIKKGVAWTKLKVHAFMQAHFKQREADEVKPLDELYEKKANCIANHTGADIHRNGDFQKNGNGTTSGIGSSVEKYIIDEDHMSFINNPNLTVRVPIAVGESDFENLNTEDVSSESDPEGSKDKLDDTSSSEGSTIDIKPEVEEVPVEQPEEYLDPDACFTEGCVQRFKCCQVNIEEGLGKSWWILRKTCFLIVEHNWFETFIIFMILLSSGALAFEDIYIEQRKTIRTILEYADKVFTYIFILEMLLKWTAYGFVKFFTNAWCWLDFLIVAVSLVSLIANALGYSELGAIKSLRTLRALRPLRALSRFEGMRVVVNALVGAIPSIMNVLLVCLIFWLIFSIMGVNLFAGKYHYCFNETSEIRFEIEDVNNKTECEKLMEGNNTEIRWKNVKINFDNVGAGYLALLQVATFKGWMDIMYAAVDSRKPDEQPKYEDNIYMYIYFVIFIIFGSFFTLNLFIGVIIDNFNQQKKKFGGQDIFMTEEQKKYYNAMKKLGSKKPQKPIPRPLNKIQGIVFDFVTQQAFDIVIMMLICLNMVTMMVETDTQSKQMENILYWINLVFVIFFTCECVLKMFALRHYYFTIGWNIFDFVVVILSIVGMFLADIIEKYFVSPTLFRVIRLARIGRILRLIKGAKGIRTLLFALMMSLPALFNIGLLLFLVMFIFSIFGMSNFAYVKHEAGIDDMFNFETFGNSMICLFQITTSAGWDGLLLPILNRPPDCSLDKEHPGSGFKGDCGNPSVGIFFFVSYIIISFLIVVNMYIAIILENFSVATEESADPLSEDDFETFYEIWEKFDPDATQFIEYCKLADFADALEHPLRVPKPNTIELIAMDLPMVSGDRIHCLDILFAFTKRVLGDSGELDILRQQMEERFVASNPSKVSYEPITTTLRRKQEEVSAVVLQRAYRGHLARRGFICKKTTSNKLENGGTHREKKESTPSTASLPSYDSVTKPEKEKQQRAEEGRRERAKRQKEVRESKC

[17] = molecular target: Kv channel-interacting protein 2/Potassium voltage-gated channel subfamily D member 3 (Homo sapiens, UniProt Q9UK17+Q9NS61); assay: Inhibition of Kv4.3/KChIP2.2 (unknown origin) by voltage clamp method; assay type: protein-complex assay
[18] = molecular target: Sodium channel protein type 9 subunit alpha (Homo sapiens, UniProt Q15858); assay: Inhibition of human Nav1.7 expressed in HEK293 cells by sodium flux analysis; assay type: cell-based
[19] = molecular target: T3, Sodium channel protein type 1 subunit alpha; assay: Inhibition of human Nav1.1 expressed in HEK293 cells by sodium influx assay; assay type: cell-based
[20] = Ratio of drug level in brain to plasma in FVB mouse at 10 mg/kg, po measured after 2 hrs; assay type: ADME, organism-based; settings: read-out: BPR
[21] = Anti-arrythmic activity in human iPSC-derived cardiomyocytes assessed as reduction in upstroke velocity dV/dt(Vmax) at 100 nM in presence of 15 to 30 nM ATX-II by current clamp analysis; assay type: functional; settings: iPSC-CM
[22] = molecular target: T4, Sodium channel protein type 8 subunit alpha; assay: Inhibition of human Nav1.6 by V1/2 protocol based analysis
[23] = molecular target: T3, Sodium channel protein type 1 subunit alpha; assay: Inhibition of human Nav1.1 by whole cell voltage clamp analysis
Cytochrome P450 2D6 = Cytochrome P450 2D6 (Homo sapiens, UniProt P10635); assay: Inhibition of CYP2D6 (unknown origin); assay type: ADME
[24] = AUC in FVB mouse at 1 mg/kg, iv; assay type: ADME, organism-based; parameters: dose 1 mg/kg; settings: in vivo
[25] = molecular target: T1, Sodium channel protein type 5 subunit alpha; assay: Displacement of [3H]BNZA from Nav1.5 (unknown origin)
[26] = molecular target: T1, Sodium channel protein type 5 subunit alpha; assay: Inhibition of human Nav1.5 expressed in HEK293 cells assessed as inhibition of peak channel current at holding potential of -95 mV; assay type: cell-based
[27] = molecular target: T4, Sodium channel protein type 8 subunit alpha; assay: Inhibition of human Nav1.6 by whole cell voltage clamp analysis
[28] = Clearance in FVB mouse at 1 mg/kg, iv; assay type: ADME, organism-based; settings: in vivo
[29] = Half life in FVB mouse at 1 mg/kg, iv; assay type: ADME, organism-based; settings: in vivo
Nav1.5 (SCN5A) = Nav1.5 (SCN5A) (Homo sapiens, UniProt Q14524); assay: State dependent inhibition of human Nav1.5 expressed in HEK293 cells assessed as shift in compound IC50 at rested state at membrane potential of -120 mV relative to partially inactivated state at membrane potential of -95 mV; assay type: cell-based; settings: HEK293 cells that express human Nav1.5, read-out: FC
[30] = Cmax in FVB mouse at 10 mg/kg, po; assay type: ADME, organism-based; parameters: route oral, dose 10 mg/kg; settings: in vivo
[31] = Oral bioavailability in FVB mouse at 10 mg/kg; assay type: ADME, organism-based; settings: in vivo
[32] = Volume of distribution at steady state in FVB mouse at 1 mg/kg, iv; assay type: ADME, organism-based; settings: in vivo, read-out: Vdss

O=S(=O)(Nc1cccc(F)n1)c1cc(F)c(O[C@H]2CCN(CC(F)(F)F)C[C@@H]2c2ccc(F)c(F)c2)c(F)c1 (stereo in doubt; (-)-6)
concentration at 2 h [1]: 2.03 µM
IC50 [2]: 44 nM
IC50 (Cytochrome P450 2C9): 2200 nM
IC50 [3]: 15.8 nM
inhibition at 0.1 µM [4]: 84%
IC50 [5]: 39 nM
inhibition at 10 µM (hERG (KCNH2)): 5%
IC50 [6]: 110 nM
IC50 [7]: 270 nM
inhibition (INH) (Cytochrome P450 2C19): Not Active
IC50 [8]: 90 nM
half-life [9]: 2.7 h
inhibition (INH) [10]: Not Active
IC50 [11]: 270 nM
inhibition (INH) [12]: Not Active
concentration at 2 h [13]: 6.44 µM
inhibition (INH) (Cytochrome P450 1A2): Not Active
inhibition (INH) (Cytochrome P450 3A4): Not Active
IC50 [14]: 12 nM
AUC [15]: 30 µM·h
IC50 [16]: 110 nM
inhibition (INH) [17]: Not Active
IC50 [18]: 220 nM
IC50 [19]: 560 nM
Kp at 2 h [20]: 0.32
inhibition at 0.1 µM [21]: 23%
IC50 [22]: 110 nM
IC50 [23]: 620 nM
inhibition (INH) (Cytochrome P450 2D6): Not Active
AUC [24]: 7.6 µM·h
Ki [25]: 370 nM
IC50 [26]: 17.7 nM
IC50 [27]: 230 nM
clearance [28]: 3.8 mL/min/kg
half-life [29]: 2.6 h
selectivity ratio (Nav1.5 (SCN5A)): 24
Cmax [30]: 3.6 µM
bioavailability [31]: 39%
Vd [32]: 0.8 L/kg
